Reference: patent US6555328B1, “Screening methods for altering circadian rhythms and for human casein kinase I δ and/or ε phosphorylation of human clock proteins, period 1, -2 and -3” (Aventis Pharmaceuticals Inc., priority 1999, dated 2003)

How the values were obtained:
Format in all cases: cell-based
[1] = target: hCKIε phosphorylation of hPER1 (Homo sapiens, UniProt P49674); experiment: Treatment of transfected cells with hCKIε inhibitor: hPER1 phosphorylation
Description: (§1) Furthermore, like hCKIε and hPER1, HCKIε co-immunoprecipitates with transfected hPER2. Treatment of transfected cells with the hCKIε inhibitor, CKI-7, results in a decrease of hPER1 and hPER2 phosphorylation. Pulse/chase studies reveal that increased phosphorylation of hPER2 by transfected hCKIε caused hPER2 to be degraded.

[2] = target: hCKIε phosphorylation of hPER2 (Homo sapiens, UniProt P49674); experiment: Treatment of transfected cells with hCKIε inhibitor: hPER2 phosphorylation
Chain of hCKIε phosphorylation of hPER2 (P49674 whole entry): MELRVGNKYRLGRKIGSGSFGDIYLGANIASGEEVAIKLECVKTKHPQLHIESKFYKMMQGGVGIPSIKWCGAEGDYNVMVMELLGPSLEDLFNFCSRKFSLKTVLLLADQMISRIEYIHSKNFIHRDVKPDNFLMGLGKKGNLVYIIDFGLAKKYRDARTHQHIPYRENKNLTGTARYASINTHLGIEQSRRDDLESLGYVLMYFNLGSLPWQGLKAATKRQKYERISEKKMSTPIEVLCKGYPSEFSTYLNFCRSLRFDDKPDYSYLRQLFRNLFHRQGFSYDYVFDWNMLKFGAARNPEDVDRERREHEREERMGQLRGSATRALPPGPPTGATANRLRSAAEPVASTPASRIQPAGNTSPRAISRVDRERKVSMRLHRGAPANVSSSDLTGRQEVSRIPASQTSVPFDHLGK
Description: as §1

[3] = system: rat PER1 oscillation in Rat1 fibroblast or Rat SCN cells; experiment: PER1 mRNA oscillation after serum shock by TaqMan RT-PCR; conditions: 10 uM, FIG. 10/11
Description: To test the effect of CKI inhibitors in altering rat PER1 oscillation by quantitative PCR using TaqMan RT-PCR (Perkin Elmer Biosystems), rat-1 fibriblasts are grown in Dulbecco's modified Eagle medium supplimented with 5% fetal calf serum and a mixture of penicillin-streptomycin-glutatamine. SCN cells are grown in Dulbecco's Minimum Eagle medium supplimented with 10% fetal calf serum penicillin-streptomycin-glutamine and 2% glucose. Approximately 5×10^5 cells are plated in 10 cm petri dishes 3-5 days prior to the experiment. Once the plates are confluent, which is designated as time=0, the medium is exchanged with serum rich medium, i.e. serum containing 50% horse serum. After 2 hours of the serum shock in 50% horse serum, this medium is replaced with serum-free medium. At indicated times, the dishes are washed with PBS and kept frozen at −80° C. until the extraction of whole cell mRNA. hCK1ε inhibitor or control is added at the time when serum-free medium is added.
Whole cell mRNA is extracted by means of RNeasy Midi kit or Rnleasy 96 kit (Qiagen) and Dnase treated (Ambion DNA-free). Quantitative PCR is performed with real-time Taq-Man technology (PE Biosystems) [C. A. Heid et al., Genomes Res. 6. M (1996)] and analysed on an ABI PRISM 7700 (T. Takumi et al., Genes Cells 4, 67: 1999). […] Ratios of rPer1 to rActin were calculated and normalized.

Chain of hCKIε phosphorylation of hPER1 (P49674 whole entry): as above

Row | hPER1 phosphorylation [1] | hPER2 phosphorylation [2] | Compound | effect on circadian rhythm of cells (rat Per1 mRNA levels) [3]
1 | decrease | decrease | NCCNS(=O)(=O)c1ccc(Cl)c2ccncc12 [CKI-7] | –
2 | – | – | CNCCC(Oc1ccc(C(F)(F)F)cc1)c1ccccc1 (stereo not drawn) [F, Fluoxitin] | do not alter the circadian rhythm of cells
